From ChEMBL document CHEMBL3992518, “Peptide Macrocycle Inhibitor of Coagulation Factor XII with Subnanomolar Affinity and High Target Selectivity” (J Med Chem, 2017)
*1 amine or outer side, *2 acyl side, *3 side chain or, on linkers, in order; H or OH if unused. Where a SMILES comes first, the peptide text is derived from it. Bridges are numbered along the chain shown (N, C = ends). [ ]: non-standard residue; d: D form. TATA = O=C(CC[*:1])N1CN(C(=O)CC[*:2])CN(C(=O)CC[*:3])C1; hLeu = CC(C)CC[C@H](N)C(=O)O

Molecular target: T1, Coagulation factor XII (Homo sapiens, UniProt P00748)
T1 sequence (P00748 whole entry): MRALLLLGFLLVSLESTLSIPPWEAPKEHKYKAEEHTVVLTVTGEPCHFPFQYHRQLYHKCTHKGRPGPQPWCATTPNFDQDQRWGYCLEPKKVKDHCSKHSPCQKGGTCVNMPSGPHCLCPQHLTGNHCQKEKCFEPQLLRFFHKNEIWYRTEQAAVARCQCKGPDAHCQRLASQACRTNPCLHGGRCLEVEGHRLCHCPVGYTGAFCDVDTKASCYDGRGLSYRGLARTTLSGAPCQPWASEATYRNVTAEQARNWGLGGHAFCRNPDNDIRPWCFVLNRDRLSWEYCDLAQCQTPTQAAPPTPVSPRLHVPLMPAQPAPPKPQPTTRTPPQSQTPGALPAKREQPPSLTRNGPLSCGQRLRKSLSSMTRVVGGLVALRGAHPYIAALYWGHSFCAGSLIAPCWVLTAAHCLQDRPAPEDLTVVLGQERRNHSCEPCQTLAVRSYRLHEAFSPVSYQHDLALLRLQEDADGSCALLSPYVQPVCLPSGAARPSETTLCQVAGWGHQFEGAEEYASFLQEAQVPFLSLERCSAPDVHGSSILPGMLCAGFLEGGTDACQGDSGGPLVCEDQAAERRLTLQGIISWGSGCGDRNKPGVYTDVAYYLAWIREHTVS
Assay: Inhibition of human beta factor 12a using fluorogenic substrate Boc-Gln-Gly-Arg-AMC preincubated for 10 mins followed by addition of substrate measured every min for 30 mins

Structure (SMILES)	Ki [nM]
CSCC[C@@H]1NC(=O)[C@H](CCC(N)=O)NC(=O)[C@H](CCCNC(=N)N)NC(=O)[C@@H]2CSCCC(=O)N3CN(CN(C3)C(=O)CCSC[C@H](NC(=O)[C@@H](N)CCCNC(=N)N)C(=O)N[C@@H](Cc3ccccc3)C(=O)N[C@@H](CCCNC(=N)N)C(=O)N[C@@H](CC(C)C)C(=O)N3CCC[C@H]3C(=O)N2)C(=O)CCSC[C@@H](C(=O)N[C@@H](CCCNC(=N)N)C(=O)N[C@@H](Cc2c[nH]c3ccccc23)C(=O)O)NC(=O)[C@H](CCCNC(=N)N)NC1=O (H-RCFRLPCRQMRCRW-OH; linker 2-7-12 via TATA)	143
CC(C)C[C@@H]1NC(=O)[C@H](CCCNC(=N)N)NC(=O)[C@H](Cc2ccccc2)NC(=O)[C@@H](NC(=O)[C@@H](N)CCCNC(=N)N)CSCCC(=O)N2CN3CN(C2)C(=O)CCSC[C@@H](C(=O)N[C@@H](CCCNC(=N)N)C(=O)N[C@@H](Cc2c[nH]c4ccccc24)C(=O)O)NC(=O)[C@H](CCCNC(=N)N)NC(=O)[C@H](CC(C)C)NC(=O)[C@H](CCC(N)=O)NC(=O)[C@H](CCCNC(=N)N)NC(=O)[C@H](CSCCC3=O)NC(=O)[C@H](C)NC1=O (H-RCFRLACRQLRCRW-OH; linker 2-7-12 via TATA)	19.6
CC(C)C[C@@H]1NC(=O)[C@H](Cc2cnc[nH]2)NC(=O)[C@H](CCCNC(=N)N)NC(=O)[C@@H]2CSCCC(=O)N3CN(CN(C3)C(=O)CCSC[C@H](NC(=O)[C@@H](N)CCCNC(=N)N)C(=O)N[C@@H](Cc3ccccc3)C(=O)N[C@@H](CCCNC(=N)N)C(=O)N[C@@H](CC(C)C)C(=O)N3CCC[C@H]3C(=O)N2)C(=O)CCSC[C@@H](C(=O)N[C@@H](CCCNC(=N)N)C(=O)N[C@@H](Cc2c[nH]c3ccccc23)C(=O)O)NC(=O)[C@H](CCCNC(=N)N)NC1=O (H-RCFRLPCRHLRCRW-OH; linker 2-7-12 via TATA)	> 3000
CC(C)C[C@@H]1NC(=O)[C@H](CCC(N)=O)NC(=O)[C@H](CCCNC(=N)N)NC(=O)[C@@H]2CSCCC(=O)N3CN(CN(C3)C(=O)CCSC[C@H](NC(=O)[C@@H](N)CCCNC(=N)N)C(=O)N[C@@H](Cc3cccc(F)c3)C(=O)N[C@@H](CCCNC(=N)N)C(=O)N[C@@H](CC(C)C)C(=O)N3CCC[C@H]3C(=O)N2)C(=O)CCSC[C@@H](C(=O)N[C@@H](CCCNC(=N)N)C(=O)N[C@@H](Cc2c[nH]c3ccccc23)C(=O)O)NC(=O)[C@H](CCCNC(=N)N)NC1=O	4.5
CC[C@H](C)[C@@H]1NC(=O)[C@H](CCCNC(=N)N)NC(=O)[C@H](Cc2ccccc2)NC(=O)[C@@H](NC(=O)[C@@H](N)CCCNC(=N)N)CSCCC(=O)N2CN3CN(C2)C(=O)CCSC[C@H](NC(=O)[C@@H]2CCCN2C1=O)C(=O)N[C@@H](CCCNC(=N)N)C(=O)N[C@@H](CCC(N)=O)C(=O)N[C@@H](CC(C)C)C(=O)N[C@@H](CCCNC(=N)N)C(=O)N[C@H](C(=O)N[C@@H](CCCNC(=N)N)C(=O)N[C@@H](Cc1c[nH]c2ccccc12)C(=O)O)CSCCC3=O (H-RCFRIPCRQLRCRW-OH; linker 2-7-12 via TATA)	890
CSCC[C@@H]1NC(=O)[C@H](CCCNC(=N)N)NC(=O)[C@H](Cc2ccccc2)NC(=O)[C@@H](NC(=O)[C@@H](N)CCCNC(=N)N)CSCCC(=O)N2CN3CN(C2)C(=O)CCSC[C@H](NC(=O)[C@@H]2CCCN2C1=O)C(=O)N[C@@H](CCCNC(=N)N)C(=O)N[C@@H](CCC(N)=O)C(=O)N[C@@H](CC(C)C)C(=O)N[C@@H](CCCNC(=N)N)C(=O)N[C@H](C(=O)N[C@@H](CCCNC(=N)N)C(=O)N[C@@H](Cc1c[nH]c2ccccc12)C(=O)O)CSCCC3=O (H-RCFRMPCRQLRCRW-OH; linker 2-7-12 via TATA)	> 3000
CC[C@H](C)[C@@H]1NC(=O)[C@H](CCC(N)=O)NC(=O)[C@H](CCCNC(=N)N)NC(=O)[C@@H]2CSCCC(=O)N3CN(CN(C3)C(=O)CCSC[C@H](NC(=O)[C@@H](N)CCCNC(=N)N)C(=O)N[C@@H](Cc3ccccc3)C(=O)N[C@@H](CCCNC(=N)N)C(=O)N[C@@H](CC(C)C)C(=O)N3CCC[C@H]3C(=O)N2)C(=O)CCSC[C@@H](C(=O)N[C@@H](CCCNC(=N)N)C(=O)N[C@@H](Cc2c[nH]c3ccccc23)C(=O)O)NC(=O)[C@H](CCCNC(=N)N)NC1=O (H-RCFRLPCRQIRCRW-OH; linker 2-7-12 via TATA)	78
CC(C)C[C@@H]1NC(=O)[C@H](CCC(N)=O)NC(=O)[C@H](CCCNC(=N)N)NC(=O)[C@@H]2CSCCC(=O)N3CN(CN(C3)C(=O)CCSC[C@H](N)C(=O)N[C@@H](Cc3ccccc3)C(=O)N[C@@H](CCCNC(=N)N)C(=O)N[C@@H](CC(C)C)C(=O)N3CCC[C@H]3C(=O)N2)C(=O)CCSC[C@@H](C(=O)N[C@@H](CCCNC(=N)N)C(=O)O)NC(=O)[C@H](CCCNC(=N)N)NC1=O (H-CFRLPCRQLRCR-OH; linker 1-6-11 via TATA)	330
CC(C)C[C@@H]1NC(=O)[C@H](CCC(N)=O)NC(=O)[C@H](CCCNC(=N)N)NC(=O)[C@@H]2CSCCC(=O)N3CN(CN(C3)C(=O)CCSC[C@H](NC(=O)[C@@H](N)C(C)C)C(=O)N[C@@H](Cc3ccccc3)C(=O)N[C@@H](CCCNC(=N)N)C(=O)N[C@@H](CC(C)C)C(=O)N3CCC[C@H]3C(=O)N2)C(=O)CCSC[C@@H](C(=O)N[C@@H](CCCNC(=N)N)C(=O)O)NC(=O)[C@H](CCCNC(=N)N)NC1=O (H-VCFRLPCRQLRCR-OH; linker 2-7-12 via TATA)	99
CC(C)C[C@@H]1NC(=O)[C@H](CCCNC(=N)N)NC(=O)[C@H](Cc2ccccc2)NC(=O)[C@@H](NC(=O)[C@@H](N)CCCNC(=N)N)CSCCC(=O)N2CN3CN(C2)C(=O)CCSC[C@H](NC(=O)[C@@H]2CCCN2C1=O)C(=O)N[C@@H](CCCNC(=N)N)C(=O)N[C@@H](CCC(N)=O)C(=O)N[C@@H](C)C(=O)N[C@@H](CCCNC(=N)N)C(=O)N[C@H](C(=O)N[C@@H](CCCNC(=N)N)C(=O)N[C@@H](Cc1c[nH]c2ccccc12)C(=O)O)CSCCC3=O (H-RCFRLPCRQARCRW-OH; linker 2-7-12 via TATA)	1040
CC(C)CC[C@@H]1NC(=O)[C@H](CCCNC(=N)N)NC(=O)[C@H](Cc2ccccc2)NC(=O)[C@@H](NC(=O)[C@@H](N)CCCNC(=N)N)CSCCC(=O)N2CN3CN(C2)C(=O)CCSC[C@H](NC(=O)[C@@H]2CCCN2C1=O)C(=O)N[C@@H](CCCNC(=N)N)C(=O)N[C@@H](CCC(N)=O)C(=O)N[C@@H](CC(C)C)C(=O)N[C@@H](CCCNC(=N)N)C(=O)N[C@H](C(=O)N[C@@H](CCCNC(=N)N)C(=O)N[C@@H](Cc1c[nH]c2ccccc12)C(=O)O)CSCCC3=O (H-RCFR[hLeu]PCRQLRCRW-OH; linker 2-7-12 via TATA)	2700
CC(C)C[C@@H]1NC(=O)[C@H](CCC(N)=O)NC(=O)[C@H](CCCNC(=N)N)NC(=O)[C@@H]2CSCCC(=O)N3CN(CN(C3)C(=O)CCSC[C@@H](C(=O)N[C@@H](CCCNC(=N)N)C(=O)O)NC(=O)[C@H](CCCNC(=N)N)NC1=O)C(=O)CCSC[C@H](NC(=O)[C@H](C)N)C(=O)N[C@@H](Cc1ccccc1)C(=O)N[C@@H](CCCNC(=N)N)C(=O)N[C@@H](CC(C)C)C(=O)N1CCC[C@H]1C(=O)N2 (H-ACFRLPCRQLRCR-OH; linker 2-7-12 via TATA)	59.2
CC(C)C[C@@H]1NC(=O)[C@H](CCC(N)=O)NC(=O)[C@H](CCCNC(=N)N)NC(=O)[C@@H]2CSCCC(=O)N3CN(CN(C3)C(=O)CCSC[C@H](NC(=O)[C@@H](N)CCCNC(=N)N)C(=O)N[C@@H](Cc3ccccc3)C(=O)N[C@@H](CCCNC(=N)N)C(=O)N[C@@H](CC(C)C)C(=O)N[C@@H](CC(=O)O)C(=O)N2)C(=O)CCSC[C@@H](C(=O)N[C@@H](CCCNC(=N)N)C(=O)N[C@@H](Cc2c[nH]c3ccccc23)C(=O)O)NC(=O)[C@H](CCCNC(=N)N)NC1=O (H-RCFRLDCRQLRCRW-OH; linker 2-7-12 via TATA)	120
CC(C)C[C@@H]1NC(=O)[C@H](CCC(N)=O)NC(=O)[C@H](CCCNC(=N)N)NC(=O)[C@@H]2CSCCC(=O)N3CN(CN(C3)C(=O)CCSC[C@H](NC(=O)[C@@H](N)CCCNC(=N)N)C(=O)N[C@@H](Cc3ccc(-c4ccccc4)cc3)C(=O)N[C@@H](CCCNC(=N)N)C(=O)N[C@@H](CC(C)C)C(=O)N3CCC[C@H]3C(=O)N2)C(=O)CCSC[C@@H](C(=O)N[C@@H](CCCNC(=N)N)C(=O)N[C@@H](Cc2c[nH]c3ccccc23)C(=O)O)NC(=O)[C@H](CCCNC(=N)N)NC1=O	> 1000
CC(C)C[C@@H]1NC(=O)[C@H](CCC(N)=O)NC(=O)[C@H](CCCNC(=N)N)NC(=O)[C@@H]2CSCCC(=O)N3CN(CN(C3)C(=O)CCSC[C@H](NC(=O)[C@@H](N)CCCNC(=N)N)C(=O)N[C@@H](Cc3ccc4ccccc4c3)C(=O)N[C@@H](CCCNC(=N)N)C(=O)N[C@@H](CC(C)C)C(=O)N3CCC[C@H]3C(=O)N2)C(=O)CCSC[C@@H](C(=O)N[C@@H](CCCNC(=N)N)C(=O)N[C@@H](Cc2c[nH]c3ccccc23)C(=O)O)NC(=O)[C@H](CCCNC(=N)N)NC1=O	6
CC(C)C[C@@H]1NC(=O)[C@H](CCC(N)=O)NC(=O)[C@H](CCCNC(=N)N)NC(=O)[C@@H]2CSCCC(=O)N3CN(CN(C3)C(=O)CCSC[C@H](NC(=O)[C@@H](N)CCCNC(=N)N)C(=O)N[C@@H](CC(C)C)C(=O)N[C@@H](CCCNC(=N)N)C(=O)N[C@@H](CC(C)C)C(=O)N3CCC[C@H]3C(=O)N2)C(=O)CCSC[C@@H](C(=O)N[C@@H](CCCNC(=N)N)C(=O)N[C@@H](Cc2c[nH]c3ccccc23)C(=O)O)NC(=O)[C@H](CCCNC(=N)N)NC1=O (H-RCLRLPCRQLRCRW-OH; linker 2-7-12 via TATA)	28
